Experiments:
PI3K = test: Immunoblot of Akt phosphorylation at Ser473 (hallmark of PI3K activation) in cells exposed to cl-CD95L; assay type: cell-based, human; conditions: all tested TNBC cell lines
Description: Cells were lysed for 30 min at 4° C. in lysis buffer [25 mM HEPES (pH 7.4), 1% v/v Triton X-100, 150 mM NaCl, and 2 mM EGTA supplemented with a mix of protease inhibitors (Sigma-Aldrich)]. Protein concentration was determined by the bicinchoninic acid method (PIERCE, Rockford, Ill., USA) according to the manufacturer's protocol. Proteins were separated by SDS-PAGE and transferred to a nitrocellulose membrane (GE Healthcare, Buckinghamshire, England). […] The proteins were visualized with the enhanced chemiluminescence substrate kit (ECL, GE Healthcare).

[1] = tested on: TNBC breast cancer cell lines (Hs578T, MDA-MB-231 and MDA-MB-468); test: In vitro motility assay (Boyden chambers); assay type: cell-based, human
Description: Boyden chambers (Millipore, Molsheim, France) containing 8 μm pore membranes were cultured in 24-well plates. After hydration of the membranes, 10^5 cells were added to the top chamber in low serum (1%)-containing medium. […] Cells were cultured for 24 h at 37° C. in a 5% CO2 humidified incubator. To quantify invasion, cells were fixed with methanol and stained with Giemsa. Stained cells were then removed from the top side of the membrane using a cotton-tipped swab and five representative pictures for each insert were taken of the invading cells from the reverse side. For each experiment, cells were lysed and absorbance at 560 nm was measured.

EGFR = EGFR phosphorylation at Tyr845 / CD95-driven EGFR activation; assay type: cell-based, human; conditions: MDA-MB-468 cells exposed to cl-CD95L
Description: Cells were lysed for 30 min at 4° C. in lysis buffer [25 mM HEPES (pH 7.4), 1% v/v Triton X-100, 150 mM NaCl, and 2 mM EGTA supplemented with a mix of protease inhibitors (Sigma-Aldrich)]. Protein concentration was determined by the bicinchoninic acid method (PIERCE, Rockford, Ill., USA) according to the manufacturer's protocol. Proteins were separated by SDS-PAGE and transferred to a nitrocellulose membrane (GE Healthcare, Buckinghamshire, England). The membrane was blocked for 15 min with TBST (50 mM Tris, 160 mM NaCl, 0.05% v/v Tween 20, pH 7.8) containing 5% w/v dried skimmed milk (TBSTM) and then incubated overnight with primary antibody at 4° C. in TBSTM. The membrane was intensively washed (TBST) and peroxidase-labeled anti-rabbit or anti-mouse (SouthernBiotech, Birmingham, Ala., US) was added for 45 min. The proteins were visualized with the enhanced chemiluminescence substrate kit (ECL, GE Healthcare).

CD95 = target: T1, CD95 (Homo sapiens, UniProt P25445); test: MISC immunoprecipitation; assay type: cell-based; conditions: MDA-MB-231 and MDA-MB-468 cells stimulated with cl-CD95L
T1 construct: endogenous in cells; host or cells: MDA-MB-231 and MDA-MB-468 human TNBC breast cancer cells
T1 sequence (P25445 26-335): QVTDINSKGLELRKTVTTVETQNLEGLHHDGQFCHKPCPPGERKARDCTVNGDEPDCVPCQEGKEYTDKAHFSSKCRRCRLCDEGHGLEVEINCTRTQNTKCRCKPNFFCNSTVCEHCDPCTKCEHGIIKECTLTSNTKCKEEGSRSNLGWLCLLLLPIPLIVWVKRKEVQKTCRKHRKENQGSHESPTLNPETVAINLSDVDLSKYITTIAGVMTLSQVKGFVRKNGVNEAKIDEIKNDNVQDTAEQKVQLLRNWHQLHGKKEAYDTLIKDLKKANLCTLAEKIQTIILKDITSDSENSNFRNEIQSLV
T1 sequence (P48023 130-281 partner limits assumed): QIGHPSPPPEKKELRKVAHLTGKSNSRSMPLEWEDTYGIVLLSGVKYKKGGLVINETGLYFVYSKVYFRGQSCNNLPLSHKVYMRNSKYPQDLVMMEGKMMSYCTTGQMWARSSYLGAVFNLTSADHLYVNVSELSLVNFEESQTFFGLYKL
Description: Breast cancer cells (20×10^6 cells per condition) were incubated with 100 ng/ml cl-CD95L for the indicated times. The cells were then lysed, 1 μg of Apo1-3 was added to the cell lysate and CD95 was immunoprecipitated by the addition of protein A-sepharose beads (Sigma-Aldrich). For the immunoprecipitation of EGF-R, 1 μg mouse anti-EGF-R (Santa Cruz Biotechnology, CA, USA) was added to the cell lysate and EGF-R was immunoprecipitated with protein A-sepharose beads (Sigma-Aldrich). After extensive washing, the immune complex was resolved by SDS-PAGE.

NADPHox = test: Flow cytometry analysis of intracellular ROS (H2FDA); assay type: cell-based, human
Description: Cells were pre-incubated for 30 min at 37° C. with 3 μM of H2FDA resuspended in PBS. The cells were then pre-incubated for an additional 30 min with or without ROS inhibitors before stimulation with 100 ng/ml cl-CD95L for the indicated times. Cells were then washed and analyzed by FACScalibur (BD Bioscience).

cl-CD95L: soluble ligand produced by metalloprotease cleavage of the transmembrane CD95L (FasL); produced in transfected 293 cells
phosphorylation of Akt at Ser473 induced by CD95L (PI3K): induced rapid phosphorylation of Akt | motility of TNBC cells stimulated with cl-CD95L ([1]; Hs578T, MDA-MB-231 and MDA-MB-468, Boyden chambers): dramatic increase in motility | migration of TNBC cells, titration of cl-CD95L ([1]; cl-CD95L at 100 pg/ml): induced migration of TNBC cells | phosphorylation of EGFR at Tyr845 (EGFR): resulted in phosphorylation of EGFR at Tyr845 | time of peak of EGFR Tyr845 phosphorylation (EGFR): 2 min | time of stimulation after which EGFR Tyr845 phosphorylation disappeared (EGFR): 10 min | MISC formation (CD95): induces MISC formation | intracellular ROS in breast cancer cells exposed to cl-CD95L (NADPHox): rapid increase in intracellular ROS

From patent US20150377888A1, “Methods for Predicting and Preventing Metastasis in Triple Negative Breast Cancers” (INSERM (INSTITUT NATIONAL DE LA SANTÉ ET DE LA RECHERCHE …, priority 2013, published 2015)
